Source: patent US8574323B2, “Marker compounds for liquid hydrocarbons and other fuels and oils” (Angus Chemical Company, priority 2010, dated 2013)

How the values were obtained:
[1] = Laundering stability and extractability of the marker in xylene solution (GC against un-laundered reference); format: physicochemical; details: 8 hours; for marker: relative to control = 100
Experimental: (§1) The stability and extractability of the markers was performed using xylene solutions containing between 100-1000 ppm makers and an equivalent amount of squalene internal reference standard using the following protocols:
Mix 95 parts marked xylenes with 5 parts laundering agent in a 100 mL vial. Mix gently for 8 hours using a magnetic stir bar. Stop mixing and remove a xylene solution aliquot. Analyze by GC and compare marker response to reference (un-laundered) sample.
(§2) Laundering Agents: • 1) 5% sulfuric acid • 2) 98% sulfuric acid • 3) 5% NaOH solution • 4) 50% NaOH solution • 5) Activated charcoal (use 98 parts xylenes solution to 2 parts charcoal) • 6) 5% bleach To test for metal adsorptivity, 100 mL marked xylene tests solution is treated with 5 grams metal shavings at room temperature for 8 hours. GC analysis is again used to determine any loss of marker to the metal surface.

[2] = Metal adsorptivity of the marker from xylene solution (GC); format: physicochemical; details: Metals: 5 grams metal shavings per 100 mL, room temperature, 8 hours
Experimental: as §1, §2

Question: Which results are given for `Cc1ccc(C)c(Cc2ccc(-c3ccc(Cc4cc(C)ccc4C)cc3)cc2)c1` [4,4′-bis(2,5-dimethylbenzyl)-1,1′-biphenyl]?
Answer: % change ([1]; 2% charcoal (activated)): −6%; marker ([1]; 2% charcoal (activated)): 94; % change ([1]; 5% H2SO4 laundering): −1.75%; marker ([1]; 5% H2SO4 laundering): 98.25; % change ([1]; 5% NaOH laundering): −2.79%; marker ([1]; 5% NaOH laundering): 102.79; % change ([1]; 5% bleach laundering): −65%; marker ([1]; 5% bleach laundering): 35; % change ([1]; 50% NaOH laundering): −1.74%; marker ([1]; 50% NaOH laundering): 98.26; % change ([1]; 98% H2SO4 laundering): 0.47%; marker ([1]; 98% H2SO4 laundering): 100.47; % change [2]: +4%; marker ([2]; relative to control = 100): 104
